Source: the supplement of paper PMC10307832

How the values were obtained:
Test in all cases: relative viability (nuclei count vs DMSO), 5 days (fraction); higher = more cells survive
[1] = tested on: EMC-BAC-2
Summary of the method: (§1)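 Dosing by pin tool came one day after lung cancer cell lines were seeded in 1536-well plates, using either one drug or a fixed anchor-drug dose plus five library-drug doses (not always all listed) in √10 steps. After 5 days, nuclei were counted on 4× images. Relative viability is treated-well nuclei count divided by vehicle-well nuclei count, and values are medians of duplicate plates.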

[2] = tested on: NCI-H23
Summary of the method: as §1

[3] = tested on: BEN
Summary of the method: as §1

[4] = tested on: NCI-H2023
Summary of the method: as §1

[5] = tested on: NCI-H647
Summary of the method: as §1

[6] = tested on: NCI-H2009
Summary of the method: as §1

[7] = tested on: NCI-H2126
Summary of the method: as §1

[8] = tested on: NCI-H838
Summary of the method: as §1

[9] = tested on: NCI-H3122
Summary of the method: as §1

[10] = tested on: HARA
Summary of the method: as §1

[11] = tested on: 201T
Summary of the method: as §1

[12] = tested on: NCI-H1666
Summary of the method: as §1

[13] = tested on: NCI-H1395
Summary of the method: as §1

[14] = tested on: NCI-H727
Summary of the method: as §1

[15] = tested on: NCI-H2347
Summary of the method: as §1

[16] = tested on: LCLC-103H
Summary of the method: as §1

[17] = tested on: HCC-44
Summary of the method: as §1

[18] = tested on: NCI-H2087
Summary of the method: as §1

[19] = tested on: NCI-H1993
Summary of the method: as §1

[20] = tested on: NCI-H650
Summary of the method: as §1

[21] = tested on: NCI-H441
Summary of the method: as §1

[22] = tested on: NCI-H596
Summary of the method: as §1

[23] = tested on: LOU-NH91
Summary of the method: as §1

SMILES: C=C1C(=O)O[C@@H](CCCCCCCC)[C@@H]1C(=O)O [C-75] + Cc1cc(Nc2cc(N3CCN(C)CC3)nc(Sc3ccc(NC(=O)C4CC4)cc3)n2)n[nH]1 [Tozasertib] (partner 0.1 µM)
- relative viability ([1]; first compound 0.08 µM): 0.279
- relative viability ([1]; first compound 0.253 µM): 0.288
- relative viability ([1]; first compound 0.8 µM): 0.294
- relative viability ([1]; first compound 2.53 µM): 0.235
- relative viability ([1]; first compound 8 µM): 0.315
- relative viability ([2]; first compound 0.08 µM): 0.36
- relative viability ([2]; first compound 0.253 µM): 0.57
- relative viability ([2]; first compound 0.8 µM): 0.417
- relative viability ([2]; first compound 2.53 µM): 0.339
- relative viability ([2]; first compound 8 µM): 0.254
- relative viability ([3]; first compound 0.08 µM): 0.494
- relative viability ([3]; first compound 0.253 µM): 0.605
- relative viability ([3]; first compound 0.8 µM): 0.544
- relative viability ([3]; first compound 2.53 µM): 0.484
- relative viability ([3]; first compound 8 µM): 0.612
- relative viability ([4]; first compound 0.08 µM): 0.407
- relative viability ([4]; first compound 0.253 µM): 0.443
- relative viability ([4]; first compound 0.8 µM): 0.302
- relative viability ([4]; first compound 2.53 µM): 0.384
- relative viability ([4]; first compound 8 µM): 0.409
- relative viability ([5]; first compound 0.08 µM): 0.24
- relative viability ([5]; first compound 0.253 µM): 0.365
- relative viability ([5]; first compound 0.8 µM): 0.211
- relative viability ([5]; first compound 2.53 µM): 0.457
- relative viability ([5]; first compound 8 µM): 0.233
- relative viability ([6]; first compound 0.08 µM): 0.724
- relative viability ([6]; first compound 0.253 µM): 0.743
- relative viability ([6]; first compound 0.8 µM): 0.743
- relative viability ([6]; first compound 2.53 µM): 0.707
- relative viability ([6]; first compound 8 µM): 0.691
- relative viability ([7]; first compound 0.08 µM): 0.873
- relative viability ([7]; first compound 0.253 µM): 0.949
- relative viability ([7]; first compound 0.8 µM): 0.841
- relative viability ([7]; first compound 2.53 µM): 0.795
- relative viability ([7]; first compound 8 µM): 0.777
- relative viability ([8]; first compound 0.08 µM): 0.311
- relative viability ([8]; first compound 0.8 µM): 0.229
- relative viability ([8]; first compound 2.53 µM): 0.293
- relative viability ([8]; first compound 8 µM): 0.266
- relative viability ([9]; first compound 0.08 µM): 0.414
- relative viability ([9]; first compound 0.253 µM): 0.514
- relative viability ([9]; first compound 0.8 µM): 0.403
- relative viability ([9]; first compound 8 µM): 0.518
- relative viability ([10]; first compound 0.08 µM): 0.149
- relative viability ([10]; first compound 0.253 µM): 0.0813
- relative viability ([10]; first compound 0.8 µM): 0.112
- relative viability ([10]; first compound 2.53 µM): 0.0971
- relative viability ([10]; first compound 8 µM): 0.145
- relative viability ([11]; first compound 0.08 µM): 0.985
- relative viability ([11]; first compound 0.253 µM): 1.12
- relative viability ([11]; first compound 0.8 µM): 1.04
- relative viability ([11]; first compound 2.53 µM): 0.932
- relative viability ([11]; first compound 8 µM): 1.02
- relative viability ([12]; first compound 0.08 µM): 0.653
- relative viability ([12]; first compound 0.253 µM): 0.66
- relative viability ([12]; first compound 0.8 µM): 0.647
- relative viability ([12]; first compound 2.53 µM): 0.613
- relative viability ([12]; first compound 8 µM): 0.499
- relative viability ([13]; first compound 0.08 µM): 0.73
- relative viability ([13]; first compound 0.253 µM): 0.732
- relative viability ([13]; first compound 0.8 µM): 0.803
- relative viability ([13]; first compound 2.53 µM): 0.669
- relative viability ([13]; first compound 8 µM): 0.795
- relative viability ([14]; first compound 0.08 µM): 0.623
- relative viability ([14]; first compound 0.253 µM): 0.623
- relative viability ([14]; first compound 0.8 µM): 0.559
- relative viability ([14]; first compound 8 µM): 0.674
- relative viability ([15]; first compound 0.08 µM): 0.558
- relative viability ([15]; first compound 0.253 µM): 0.74
- relative viability ([15]; first compound 0.8 µM): 0.517
- relative viability ([15]; first compound 8 µM): 0.534
- relative viability ([16]; first compound 0.08 µM): 0.597
- relative viability ([16]; first compound 0.253 µM): 0.543
- relative viability ([16]; first compound 0.8 µM): 0.428
- relative viability ([16]; first compound 2.53 µM): 0.514
- relative viability ([16]; first compound 8 µM): 0.406
- relative viability ([17]; first compound 0.08 µM): 0.989
- relative viability ([17]; first compound 0.253 µM): 0.942
- relative viability ([17]; first compound 0.8 µM): 0.9
- relative viability ([17]; first compound 2.53 µM): 0.878
- relative viability ([17]; first compound 8 µM): 0.714
- relative viability ([18]; first compound 0.08 µM): 0.245
- relative viability ([18]; first compound 0.253 µM): 0.294
- relative viability ([18]; first compound 0.8 µM): 0.179
- relative viability ([18]; first compound 2.53 µM): 0.228
- relative viability ([18]; first compound 8 µM): 0.305
- relative viability ([19]; first compound 0.08 µM): 0.611
- relative viability ([19]; first compound 0.253 µM): 0.623
- relative viability ([19]; first compound 0.8 µM): 0.59
- relative viability ([19]; first compound 2.53 µM): 0.495
- relative viability ([19]; first compound 8 µM): 0.529
- relative viability ([20]; first compound 0.08 µM): 0.759
- relative viability ([20]; first compound 0.253 µM): 0.651
- relative viability ([20]; first compound 0.8 µM): 0.718
- relative viability ([20]; first compound 2.53 µM): 0.616
- relative viability ([20]; first compound 8 µM): 0.62
- relative viability ([21]; first compound 0.08 µM): 0.624
- relative viability ([21]; first compound 0.253 µM): 0.895
- relative viability ([21]; first compound 0.8 µM): 0.713
- relative viability ([21]; first compound 2.53 µM): 0.543
- relative viability ([21]; first compound 8 µM): 0.729
- relative viability ([22]; first compound 0.08 µM): 0.889
- relative viability ([22]; first compound 0.253 µM): 1.09
- relative viability ([22]; first compound 0.8 µM): 0.728
- relative viability ([22]; first compound 2.53 µM): 0.83
- relative viability ([22]; first compound 8 µM): 0.821
- relative viability ([23]; first compound 0.08 µM): 0.694
- relative viability ([23]; first compound 0.253 µM): 0.561
- relative viability ([23]; first compound 0.8 µM): 0.597
- relative viability ([23]; first compound 2.53 µM): 0.495
- relative viability ([23]; first compound 8 µM): 0.642
